Molecules are shown by their SMILES. A value given as a limit tells only on which side of the number the result lay.

Drawing on patent publication US11459327B1, “Cycloalkyl and hetero-cycloalkyl inhibitors, preparation methods therefor, and use thereof” (Suzhou Zelgen Biopharmaceuticals Co., Ltd., priority 2019, dated 2022), this text covers IC50 for 24 molecules.

The test system of test [1] is NCI-H358(KRAS^G12C mutation) cells. As to the kind of experiment: Cell assay of antiproliferative activity (Celltiter-Glo, 5 days) against NCI-H358 cells. Conditions: 5 days incubation. Type of test: cell-based. How it is done: (§1) Cell assay of antiproliferative activity of compounds against NCI-H358(KRAS^G12C mutation) and A549(KRAS^G12S mutation) cells.
(§2) 40 μl phosphate buffer was added to the outer wells of the 384 microplate, and 40 μl cell suspension to be tested was added to the other wells. Then the microplate was incubated in a carbon dioxide incubator overnight.
(§3) The compounds to be tested were gradiently diluted, each compound was performed 10 concentration gradients (diluted from 50 μM to 0.003 μM) and added 100 nL to the corresponding wells in the microplate. After addition, 40 μl of phosphate buffer was added to each well in rows A and P and columns 1 and 24, and then the microplate was incubated in a carbon dioxide incubator for 5 days.
(§4) 20 μL of Promega Celltiter-Glo reagent was added to each well of the microplate, and then the luminescence signal was stabilized by oscillating at room temperature for 10 min. Then PekinElmer Envision multi-label analyzer was used to read.
(§5) Finally, GraphPad Prism software was used to calculate the IC50 value of the compound and the fitting curve was drawn.
(§6) Anti-proliferative activity of the compounds of the present invention against NCI-H358(KRAS^G12C mutation) and A549(KRAS^G12S mutation) cells were shown in Table 1.

Test [2] concerns A549(KRAS^G12S mutation) cells. Nature of the test: Cell assay of antiproliferative activity (Celltiter-Glo, 5 days) against A549 cells. Type of test: cell-based. Conditions: 5 days incubation. How it is done: as §1, §2, §3, §4, §5, §6
(In general: ATP-based viability assays read luminescence as a measure of living cells.)

One may read the IC50 as the concentration that inhibits the measured activity by half. Read a high IC50 as weaker potency. `C=CC(=O)N1CCN(c2nc(OC[C@@H](COC)N(C)C3CCC3)nc3c2CCN(c2cccc4cccc(C)c24)C3)CC1CC#N` (stereo partly drawn) [Example 1, 2-(1-acroloyl-4-(2-((R)-2-(cyclobutyl(methyl)amino)-3-methoxypropoxy)-7-(8-methylnaphthalen-1-yl)-5,6,7,8-tetrahydropyrido[3,4-d]pyrimidin-4-yl)piperazin-2-yl) acetonitrile]: the IC50 in test [1] (Homo sapiens, NCI-H358, 120 h) stood at 220 nM; in test [2] (Homo sapiens, 120 h), 7100 nM.

With `C=CC(=O)N1CCN(c2nc(OCC3(CN(C)C)CC3)nc3c2CCN(c2cccc4cccc(Cl)c24)C3)CC1CC#N` (stereo not drawn) [Example 2, 2-(1-acroloyl-4-(7-(8-chloronaphthalen-1-yl)-2-((1-((dimethylamino)methyl)cyclopropyl)methoxyl)-5,6,7,8-tetrahydropyrido[3,4-d]pyrimidin-4-yl)piperazin-2-yl) acetonitrile], the half-inhibitory concentration (IC50) in test [1] (Homo sapiens, NCI-H358, 120 h) amounted to 7.8 nM; in test [2] (Homo sapiens, 120 h) it was 4300 nM.

For `C=CC(=O)N1CCN(c2nc(OCC3(CN(C)C)CCC3)nc3c2CCN(c2cccc4cccc(Cl)c24)C3)CC1CC#N` (stereo not drawn) [Example 3, 2-(1-acroloyl-4-(7-(8-chloronaphthalen-1-yl)-2-((1-((dimethylamino)methyl)cyclobutyl)methoxyl)-5,6,7,8-tetrahydropyrido[3,4-d]pyrimidin-4-yl)piperazin-2-yl) acetonitrile], the IC50 in test [1] (Homo sapiens, NCI-H358, 120 h) stood at 39 nM; in test [2] (Homo sapiens, 120 h) it was 7100 nM.

`C=CC(=O)N1CCN(c2nc(OCCN(C)CC3(F)CC3)nc3c2CCN(c2cccc4cccc(C)c24)C3)CC1CC#N` (stereo not drawn) [Example 4]: the IC50 in test [1] stood at 210 nM; in test [2] (Homo sapiens, 120 h) it was 9500 nM.

For the molecule `C=CC(=O)N1CCN(c2nc(OCCN(CCOC)C3CCC3)nc3c2CCN(c2cccc4cccc(Cl)c24)C3)CC1CC#N` (stereo not drawn) [Example 5], the IC50 in test [1] (Homo sapiens, NCI-H358, 120 h) came out at 60 nM; in test [2] (Homo sapiens, 120 h), 7100 nM.

Take `C=CC(=O)N1CCN(c2nc(OCCN(C)CC3CC3(F)F)nc3c2CCN(c2cccc4cccc(Cl)c24)C3)CC1CC#N` (stereo not drawn) [Example 6]: the IC50 worked out at 110 nM in test [1] (Homo sapiens, NCI-H358, 120 h) and 9900 nM in test [2] (Homo sapiens, 120 h).

In the case of `C=CC(=O)N1CCN(c2nc(OCCN(C)C3COC3)nc3c2CCN(c2cccc4cccc(C)c24)C3)CC1CC#N` (stereo not drawn) [Example 7, 2-(1-acroloyl-4-(2-(2-(methyl(cyclobutoxy-3-yl)amino)ethyoxyl)-7-(8-methylnaphthalen-1-yl)-5,6,7,8-tetrahydropyrido[3,4-d]pyrimidin-4-yl)piperazin-2-yl) acetonitrile], the IC50 in test [1] (Homo sapiens, NCI-H358, 120 h) is 72 nM; in test [2] (Homo sapiens, 120 h), 8200 nM.

In the case of `C=CC(=O)N1CCN(c2nc(OC[C@H](CC)N(C)C3CCC3)nc3c2CCN(c2cccc4cccc(Cl)c24)C3)CC1CC#N` (stereo partly drawn) [Example 8, 2-(1-acroloyl-4-(7-(8-chloronaphthalen-1-yl)-2-((S)-2-(cyclobutyl (methyl)amino)butyloxy)-5,6,7,8-tetrahydropyrido[3,4-d]pyrimidin-4-yl)piperazin-2-yl) acetonitrile], the IC50 in test [1] (Homo sapiens, NCI-H358, 120 h) came to 130 nM; in test [2] (Homo sapiens, 120 h), 7040 nM.

For the molecule `C=CC(=O)N1CCN(c2nc(OC[C@H](C(C)C)N(C)C3CCC3)nc3c2CCN(c2cccc4cccc(Cl)c24)C3)CC1CC#N` (stereo partly drawn) [Example 9, 2-(1-acroloyl-4-(7-(8-chloronaphthalen-1-yl)-2-((S)-2-(cyclobutyl(methyl)amino)-3-methylbutyloxy)-5,6,7,8-tetrahydropyrido[3,4-d]pyrimidin-4-yl)piperazin-2-yl) acetonitrile], the IC50 in test [1] (Homo sapiens, NCI-H358, 120 h) came out at 160 nM; in test [2] (Homo sapiens, 120 h), 17700 nM.

In the case of `C=CC(=O)N1CCN(c2nc(OCCN(CC(F)(F)F)C3CCC3)nc3c2CCN(c2cccc4cccc(Cl)c24)C3)CC1CC#N` (stereo not drawn) [Example 10, 2-(1-acroloyl-4-(7-(8-chloronaphthalen-1-yl)-2-(2-(cyclobutyl(2,2,2-trifluoroethyl)amino)ethoxy)-5,6,7,8-tetrahydropyrido[3,4-d]pyrimidin-4-yl)piperazin-2-yl) acetonitrile], the 50% inhibitory concentration (IC50) stood at 6500 nM in test [1] (Homo sapiens, NCI-H358, 120 h) and 17400 nM in test [2] (Homo sapiens, 120 h).

As to `C=C(F)C(=O)N1CCN(c2nc(OCCN(C)C3CCC3)nc3c2CCN(c2cccc4cccc(Cl)c24)C3)CC1CC#N` (stereo not drawn) [Example 11, 2-(4-(7-(8-chloronaphthalen-1-yl)-2-(2-(cyclobutyl(methyl)amino)ethoxy)-5,6,7,8-tetrahydropyrido[3,4-d]pyrimidin-4-yl)-1-(2-fluoroacroloyl)piperazin-2-yl) acetonitrile], the IC50 in test [1] (Homo sapiens, NCI-H358, 120 h) worked out at 110 nM; in test [2] (Homo sapiens, 120 h) it was 3200 nM.

As for `C=C(F)C(=O)N1CCN(c2nc(OC[C@H](C)N(C)C3CCC3)nc3c2CCN(c2cccc4cccc(Cl)c24)C3)CC1CC#N` (stereo partly drawn) [Example 12], the 50% inhibitory concentration (IC50) was determined as 140 nM in test [1] (Homo sapiens, NCI-H358, 120 h) and 2300 nM in test [2] (Homo sapiens, 120 h).

Consider `C=CC(=O)N1CCN(c2nc(O[C@@H]3CCC[C@@H]3N(C)C)nc3c2CCN(c2cccc4cccc(Cl)c24)C3)CC1CC#N` (stereo partly drawn) [Example 15, 2-(1-acroloyl-4-(7-(8-chloronaphthalen-1-yl)-2-(((cis)-2-(dimethylamino)cyclopentyl)oxy)-5,6,7,8-tetrahydropyrido[3,4-d]pyrimidin-4-yl)piperazin-2-yl) acetonitrile], for which the IC50 is 90 nM in test [1] (Homo sapiens, NCI-H358, 120 h) and 13500 nM in test [2] (Homo sapiens, 120 h).

For the molecule `C=CC(=O)N1CCN(c2nc(OCC3(CN(C)C)COC3)nc3c2CCN(c2cccc4cccc(Cl)c24)C3)CC1CC#N` (stereo not drawn) [Example 19, 2-(1-acroloyl-4-(7-(8-chloronaphthalen-1-yl)-2-((3-((dimethylamino)methyl)oxetan-3-yl)methoxyl)-5,6,7,8-tetrahydropyrido[3,4-d]pyrimidin-4-yl)piperazin-2-yl) acetonitrile], the IC50 in test [1] is 4.6 nM; in test [2], 8900 nM.

In the case of `C=CC(=O)N1CCN(c2nc(OCC3(COC)CC3)nc3c2CCN(c2cccc4cccc(Cl)c24)C3)CC1CC#N` (stereo not drawn) [Example 20, 2-(1-acroloyl-4-(7-(8-chloronaphthalen-1-yl)-2-((1-(methoxymethyl)cyclopropyl)methoxyl)-5,6,7,8-tetrahydropyrido[3,4-d]pyrimidin-4-yl)piperazin-2-yl) acetonitrile], the IC50 in test [1] (Homo sapiens, NCI-H358, 120 h) was 870 nM; in test [2] (Homo sapiens, 120 h), 7700 nM.

For the molecule `C=C(F)C(=O)N1CCN(c2nc(OCC3(CN(C)CCOC)CC3)nc3c2CCN(c2cccc4cccc(Cl)c24)C3)C[C@@H]1CC#N` [Example 69], the concentration for half-maximal inhibition (IC50) in test [1] (Homo sapiens, NCI-H358, 120 h) was 59 nM.

On to `C=CC(=O)N1CCN(c2nc(OCCN(C)CC3(F)CC3)nc3c2CCN(c2cccc4cccc(C)c24)C3)CC1CC#N` (stereo not drawn) [Example 80, 2-(1-acroloyl-4-(2-(2-(((1-fluorocyclopropyl)methyl) (methyl)amino)ethoxy)-7-(8-methylnaphthalen-1-yl)-5,6,7,8-tetrahydropyrido[3,4-d]pyrimidin-4-yl)piperazin-2-yl) acetonitrile], for which the half-maximal inhibitory concentration (IC50) in test [1] was < 100 nM.

Take `C=CC(=O)N1CCN(c2nc(OCCN(C)C3CC(F)(F)C3)nc3c2CCN(c2cccc4cccc(C)c24)C3)CC1CC#N` (stereo not drawn) [Example 85]: the 50% inhibitory concentration (IC50) in test [1] (Homo sapiens, NCI-H358, 120 h) is < 100 nM.

`C=CC(=O)N1CCN(c2nc(OC[C@H](C)N(C)C3CCC3)nc3c2CCN(c2cccc4cccc(C)c24)C3)C[C@@H]1CC#N` [Example 91A, 2-((S)-1-acroloyl-4-(2-((S)-2-(cyclobutyl(methyl)amino)propoxy)-7-(8-methylnaphthalen-1-yl)-5,6,7,8-tetrahydropyrido[3,4-d]pyrimidin-4-yl)piperazin-2-yl) acetonitrile]: the IC50 in test [1] is < 30 nM.

`C=CC(=O)N1CCN(c2nc(OC[C@H](C)N(C)C3CCC3)nc3c2CCN(c2cccc4cccc(C)c24)C3)C[C@H]1CC#N` [Example 91B, 2-((R)-1-acroloyl-4-(2-((S)-2-(cyclobutyl(methyl)amino)propoxy)-7-(8-methylnaphthalen-1-yl)-5,6,7,8-tetrahydropyrido[3,4-d]pyrimidin-4-yl)piperazin-2-yl) acetonitrile]: the IC50 in test [1] was < 1000 nM.

For `C=CC(=O)N1CCN(c2nc(OC[C@@H](C)N(C)C3CCC3)nc3c2CCN(c2cccc4cccc(C)c24)C3)CC1CC#N` (stereo partly drawn) [Example 92, 2-(1-acroloyl-4-(2-((R)-2-(cyclobutyl(methyl)amino)propoxy)-7-(8-methylnaphthalen-1-yl)-5,6,7,8-tetrahydropyrido[3,4-d]pyrimidin-4-yl)piperazin-2-yl) acetonitrile], the IC50 in test [1] (Homo sapiens, NCI-H358, 120 h) was < 100 nM.

In test [1] (Homo sapiens, NCI-H358, 120 h), `C=CC(=O)N1CCN(c2nc(OCCN(C)CC3CC3)nc3c2CCN(c2cccc(F)c2C(F)(F)F)C3)CC1` [Example 95] returned an IC50 of 6260 nM.

On to `C=C(F)C(=O)N1CCN(c2nc(OCC3(CN(C)C)CC3)nc3c2C[C@H](C)N(c2cccc4ccc(F)c(Cl)c24)C3)C[C@@H]1CC#N` [Example 96A, 2-((S)-4-((S)-7-(8-chloro-7-fluoronaphthalen-1-yl)-2-((1-((dimethylamino)methyl)cyclopropyl)methoxy)-6-methyl-5,6,7,8-tetrahydropyrido[3,4-d]pyrimidin-4-yl)-1-(2-fluoroacroloyl)piperazin-2-yl) acetonitrile], for which, in test [1], it took 191 nM to reach half-maximal inhibition (IC50).

For the molecule `C=C(F)C(=O)N1CCN(c2nc(OCC3(CN(C)C)CC3)nc3c2C[C@@H](C)N(c2cccc4ccc(F)c(Cl)c24)C3)C[C@@H]1CC#N` [Example 96B, 2-((S)-4-((R)-7-(8-chloro-7-fluoronaphthalen-1-yl)-2-((1-((dimethylamino)methyl)cyclopropyl)methoxy)-6-methyl-5,6,7,8-tetrahydropyrido[3,4-d]pyrimidin-4-yl)-1-(2-fluoroacroloyl)piperazin-2-yl) acetonitrile], the IC50 in test [1] worked out at 5 nM.
